{
  "source": "patent US6548495B2",
  "about": "“Dihydro-benzo [B] [1,4] diazepin-2-one derivatives” (Hoffmann-La Roche Inc., priority 2002, dated 2003)",
  "key": {"[1]": {"target": "T1, recombinant rat mGluR2 expressed in CHO cells (Rattus norvegicus, UniProt P31421)", "T1 construct": "expressed in transfected cells; host or cells: CHO cells, stably transfected with pcD1mGR2 (pcDNA I-amp), G-418 selected; membranes used", "T1 sequence (P31421 19-872)": "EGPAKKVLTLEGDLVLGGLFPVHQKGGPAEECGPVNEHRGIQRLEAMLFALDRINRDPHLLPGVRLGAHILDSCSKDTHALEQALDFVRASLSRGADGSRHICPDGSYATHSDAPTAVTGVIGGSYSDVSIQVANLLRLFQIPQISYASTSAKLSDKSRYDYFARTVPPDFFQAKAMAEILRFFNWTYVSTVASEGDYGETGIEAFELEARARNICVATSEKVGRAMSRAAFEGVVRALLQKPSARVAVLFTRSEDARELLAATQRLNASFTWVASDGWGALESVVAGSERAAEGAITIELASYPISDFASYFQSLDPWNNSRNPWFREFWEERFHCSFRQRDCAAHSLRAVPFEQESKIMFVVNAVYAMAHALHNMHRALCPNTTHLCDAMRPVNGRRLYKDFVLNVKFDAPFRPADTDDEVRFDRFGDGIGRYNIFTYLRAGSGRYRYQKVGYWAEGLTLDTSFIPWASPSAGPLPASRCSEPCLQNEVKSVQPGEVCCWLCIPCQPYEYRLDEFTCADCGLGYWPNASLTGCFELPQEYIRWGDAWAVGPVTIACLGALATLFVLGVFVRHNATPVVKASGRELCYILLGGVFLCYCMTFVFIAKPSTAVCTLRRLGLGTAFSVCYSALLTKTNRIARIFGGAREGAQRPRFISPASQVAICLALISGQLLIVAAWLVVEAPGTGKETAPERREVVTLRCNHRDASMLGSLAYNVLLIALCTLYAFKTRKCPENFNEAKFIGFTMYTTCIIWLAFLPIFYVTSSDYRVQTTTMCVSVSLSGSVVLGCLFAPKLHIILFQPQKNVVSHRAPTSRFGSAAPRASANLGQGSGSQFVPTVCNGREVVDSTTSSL", "test": "[3H]-LY354740 binding on mGlu2 transfected CHO cell membranes (displacement binding assay)", "conditions": "displacement of 10 nM [3H]-LY354740, membranes of CHO cells expressing rat mGlu2, room temperature, 1 hour; Ki calculated from IC50 with the Cheng and Prusoff equation", "description": "In Table I below some specific Ki values of preferred compounds of the invention are presented. These values were obtained by indirect measurement of the affinity of the compounds for the recombinant rat mGluR2 expressed in CHO cells using a displacement binding assay with 3H-LY354740.\n[^3H]-LY354740 Binding on mGlu2 Transfected CHO Cell Membranes\nTransfection and Cell Culture\ncDNA encoding the rat mGlu2 receptor protein in pBluescript II was obtained from Prof. S. Nakanishi (Kyoto, Japan), and subcloned into the eukaryotic expression vector pcDNA I-amp from Invitrogen (NV Leek, The Netherlands). This vector construct (pcD1mGR2) was co-transfected with a psvNeo plasmid encoding the gene for neomycin resistance, into CHO cells by a modified calcium phosphate method described by Chen & Okayama (1988). The cells were maintained in Dulbecco's Modified Eagle medium with reduced L-glutamine (2 mM final concentration) and 10% dialysed foetal calf serum from Gibco BRL (Basel, Switzerland). Selection was made in the presence of G-418 (1000 ug/mL final). Clones were identified by reverse transcription of 5 μg total RNA, followed by PCR using mGlu2 receptor specific primers 5′-[…]-3′ and 5′-[…]-3′ in 60 mM Tris HCl (pH 10), 15 mM (NH4)2SO4, 2 mM MgCl2, 25 units/mL Taq Polymerase with 30 cycles annealing at 60° C. for 1 min., extention at 72° C. for 30 s, and 1 min. 95° C. denaturation.\nCells, cultured as above, were harvested and washed three times with cold PBS and frozen at −80° C. The pellet was resuspended in cold 20 mM HEPES-NaOH buffer containing 10 mM EDTA (pH 7.4), and homogenised with a polytron (Kinematica, AG, Littau, Switzerland) for 10 s at 10000 rpm. After centrifugation for 30 min. at 4° C., the pellet was washed once with the same buffer, and once with cold 20 mM HEPES-NaOH buffer containing 0.1 mM EDTA, (pH 7.4). Protein content was measured using the Pierce method (Socochim, Lausanne, Switzerland) using bovine serum albumin as standard.\nAfter thawing, the membranes were resuspended in cold 50 mM Tris-HCl buffer containing 2 mM MgCl2 and 2 mM CaCl2, (pH 7) (binding buffer). The final concentration of the membranes in the assays was 25 μg protein/mL. Inhibition experiments were performed with membranes incubated with 10 nM [^3H]-LY354740 at room temperature, for 1 hour, in presence of various concentrations of the compound to be tested. Following the incubations, membranes were filtered onto Whatmann GF/C glass fiber filters and washed 5 times with cold binding buffer. Non specific binding was measured in the presence of 10 μM DCG IV. After transfer of the filters into plastic vials containing 10 mL of Ultima-gold scintillation fluid (Packard, Züirich, Switzerland), the radioactivity was measured by liquid scintillation in a Tri-Carb 2500 TR counter (Packard, Züirich, Switzerland).\nThe inhibition curves were fitted with a four parameter logistic equation giving IC50 values, and Hill coefficients and the Ki values were calculated using the Cheng and Prusoff equation (Cheng, Y. and Prusoff, W. H., Biochem. Pharmacol. 1973, 22, 3099-3108). A small Ki value expresses high affinity of the compound towards the receptor."}},
  "data": [
    {"smiles": "O=C1CC(c2cccc(-c3nc(C(=O)NCCO)co3)c2)=Nc2ccc(-n3cccc3)cc2N1", "note": "[Example 34, 2-[3-(4-oxo-7-Pyrrol-1-yl-4,5-dihydro-3H-benzo[b][1,4]diazepin-2-yl)-phenyl]-oxazole-4-carboxylic Acid (2-Hydroxy-ethyl)-amide]", "values": [
      {"measurement": "Ki", "setting": "[1]", "value": 0.091, "unit": "µM"},
      {"measurement": "melting point", "value": "242 to 244", "unit": "°C"}
    ]},
    {"smiles": "Cn1nccc1-c1cccc(C2=Nc3cc(N4CCOCC4)c(C(F)(F)F)cc3NC(=O)C2)c1", "note": "[Example 38, 4-[3-(2-Methyl-2H-pyrazol-3-yl)-phenyl]-7-morpholin-4-yl-8-trifluoromethyl-1,3-dihydro-benzo[b][1,4]diazepin-2-one]", "values": [
      {"measurement": "Ki", "setting": "[1]", "value": 0.006, "unit": "µM"},
      {"measurement": "melting point", "value": 211, "unit": "°C"}
    ]},
    {"smiles": "N#Cc1cc(C2=Nc3cc(N4CCSCC4)c(C(F)(F)F)cc3NC(=O)C2)ccn1", "note": "[Example 42, 4-(4-oxo-8-Thiomorpholin-4-yl-7-trifluoromethyl-4,5-dihydro-3H-benzo[b][1,4]diazepin-2-yl)-pyridine-2-carbonitrile]", "values": [
      {"measurement": "Ki", "setting": "[1]", "value": 0.0009, "unit": "µM"},
      {"measurement": "melting point", "value": "195 to 199", "unit": "°C"}
    ]},
    {"smiles": "CCOc1cc2c(cc1C(F)(F)F)NC(=O)CC(c1cccc(-n3nncc3CO)c1)=N2", "note": "[Example 52, 7-Ethoxy-4-[3-(5-hydroxymethyl-[1,2,3]triazol-1-yl)-phenyl]-8-trifluoromethyl-1,3-dihydro-benzo[b][1,4]diazepin-2-one]", "values": [
      {"measurement": "Ki", "setting": "[1]", "value": 0.0835, "unit": "µM"},
      {"measurement": "melting point", "value": 214, "unit": "°C"}
    ]},
    {"smiles": "CCOc1cc2c(cc1C(F)(F)F)NC(=O)CC(c1ccnc(C#N)c1)=N2", "note": "[Example 53, 4-(8-Ethoxy-4-oxo-7-trifluoromethyl-4,5-dihydro-3H-benzo[b][1,4]diazepin-2-yl)-pyridine-2-carbonitrile]", "values": [
      {"measurement": "Ki", "setting": "[1]", "value": 0.008, "unit": "µM"},
      {"measurement": "melting point", "value": 233, "unit": "°C"}
    ]},
    {"smiles": "Cc1cc2c(cc1C(F)(F)F)NC(=O)CC(c1ccnc(C#N)c1)=N2", "note": "[Example 58, 4-(8-Methyl-4-oxo-7-trifluoromethyl-4,5-dihydro-3H-benzo[b][1,4]diazepin-2-yl)-pyridine-2-carbonitrile]", "values": [
      {"measurement": "Ki", "setting": "[1]", "value": 0.0085, "unit": "µM"},
      {"measurement": "melting point", "value": 235, "unit": "°C"}
    ]},
    {"smiles": "Cc1cc(-c2cccc(C3=Nc4cc(N5CCSCC5)c(C#N)cc4NC(=O)C3)c2)on1", "note": "[Example 62, 2-[3-(3-Methyl-isoxazol-5-yl)-phenyl]-4-oxo-8-thiomorpholin-4-yl-4,5-dihydro-3H-benzo[b][1,4]diazepine-7-carbonitrile]", "values": [
      {"measurement": "Ki", "setting": "[1]", "value": 0.0325, "unit": "µM"},
      {"measurement": "melting point", "value": 245, "unit": "°C"}
    ]},
    {"smiles": "O=C1CC(c2cccc(-n3nncc3CNC3CC3)c2)=Nc2cc(Cl)c(C(F)(F)F)cc2N1", "note": "[Example 67, 7-Chloro-4-[3-(5-cyclopropylaminomethyl-[1,2,3]triazol-1-yl)-phenyl]-8-trifluoromethyl-1,3-dihydro-benzo[b][1,4]diazepin-2-one]", "values": [
      {"measurement": "Ki", "setting": "[1]", "value": 0.0155, "unit": "µM"},
      {"measurement": "melting point", "value": 206, "unit": "°C"}
    ]},
    {"smiles": "Cc1cc2c(cc1C(F)(F)F)NC(=O)CC(c1cccc(-n3nncc3CNC3CC3)c1)=N2", "note": "[Example 69, 4-[3-(5-Cyclopropylaminomethyl-[1,2,3]triazol-1-yl)-phenyl]-7-methyl-8-trifluoromethyl-1,3-dihydro-benzo[b][1,4]diazepin-2-one]", "values": [
      {"measurement": "Ki", "setting": "[1]", "value": 0.026, "unit": "µM"},
      {"measurement": "melting point", "value": 181, "unit": "°C"}
    ]},
    {"smiles": "Cc1cc2c(cc1C(F)(F)F)NC(=O)CC(c1cccc(-n3cccn3)c1)=N2", "note": "[Example 77, 7-Methyl-4-(3-pyrazol-1-yl-phenyl)-8-trifluoromethyl-1,3-dihydro-benzo[b][1,4]diazepin-2-one]", "values": [
      {"measurement": "Ki", "setting": "[1]", "value": 0.07, "unit": "µM"},
      {"measurement": "melting point", "value": 235, "unit": "°C"}
    ]},
    {"smiles": "Cc1cc2c(cc1C(F)(F)F)NC(=O)CC(c1cccc(-c3nc(CO)sc3C)c1)=N2", "note": "[Example 84, 4-[3-(2-Hydroxymethyl-5-methyl-thiazol-4-yl)-phenyl]-7-methyl-8-trifluoromethyl-1,3-dihydro-benzo[b][1,4]diazepin-2-one]", "values": [
      {"measurement": "Ki", "setting": "[1]", "value": 0.0065, "unit": "µM"},
      {"measurement": "melting point", "value": "214 to 217", "unit": "°C"}
    ]}
  ]
}
